Where two headings read alike, the source gives them in different places.
Legend:
[1] = system: ovine ABCG2
Protocol: (§5) This study employed Madin-Darby Canine Kidney (MDCKII) cells that had been previously transduced with ovine ABCG2. […] Briefly, cells were grown in DMEM (Dulbecco’s modified Eagle’s medium) enriched with glutamax (Life Technologies, Inc., Rockville, MD, United States) and supplemented with penicillin (50 units/mL), streptomycin (50 μg/mL), and 10% (v/v) fetal calf serum (MP Biomedicals, Solon, OH, United States) at a temperature of 37°C and 5% of CO2. Every 3 to 4 days, cells were trypsinized for subculturing.
(§6) Transcellular transport experiments using ovine ABCG2-transduced cells were conducted following the method previously described ([33]). Cells were seeded onto microporous polycarbonate membrane filters (3.0 μm pore size, 24 mm diameter; Transwell 3414; Costar, Corning, NY) at a density of 1.0 × 10^6 per well. The tightness of the monolayer was assessed by measuring its transcellular resistance using Millicell ERS (Millipore Burlington, MA).
(§7) Two hours before the beginning, preincubation was carried out replacing medium in both compartments with 2 mL of transport medium [Hanks’ balanced salt solution supplemented with HEPES (25 mM)] with or without the macrocyclic lactones (10 μM ivermectin and 2.5 μM abamectin). The experiment began with the replacement of the medium in either the apical or basal compartment with transport medium containing clorsulon (10 μM), with or without the same concentration of macrocyclic lactones. Aliquots of 100 μL at 1, 2 and 3 h in the opposite compartment were taken, this volume being replaced with fresh medium. At 4 h, 600 μL aliquots were taken in both compartments. Until analysis by high-performance liquid chromatography (HPLC), samples were stored at −20°C. After concluding the experiment, the confluence of the monolayer was evaluated by means of the Lucifer Yellow permeability assay ([34]). Transport proficiency of these cells was consistently verified through the evaluation of a typical ABCG2 substrate, danofloxacin ([25]).
(§8) The apparent permeability coefficients (Papp) across MDCKII parent and MDCKII oABCG2 cells monolayers in both apical to basal (A-B) (Papp A-B) and basal to apical (B-A) (Papp B-A) directions were calculated using following equation: Papp = (ΔQ/Δt)*(1/A*Co), where ΔQ/Δt is the rate of corresponding clorsulon appearing in the receiver chamber, which was obtained as the slope of the regression line on the transport time profile of clorsulon across the cell monolayers (from 0 to 4 h); Co is the initial concentration of drug; A is the cell monolayer surface area (4.67 cm^2). The efflux ratio is the Papp B-A/Papp A-B quotient.

[2] = system: ovine ABCG2; details: at 25 μM in ovine ABCG2-transduced cells; cited from earlier work
[3] = Transepithelial transport of clorsulon across MDCKII parental cell monolayers; type: in vitro ADME, Canine; details: dog, MDCK, MDCKII parental cells, clorsulon 10 μM, with or without ivermectin 10 μM, abamectin 2.5 μM, Ko143 1 μM, mean ± SD
[4] = system: murine ABCG2; set-up: method as in PMID 37078871; details: murine ABCG2 transduced cell line; cited from earlier work
[5] = Plasma pharmacokinetics of clorsulon in lactating Assaf sheep; type: in vivo; details: female
Protocol: (§1) Studies with sheep were carried out on the Experimental Farm of the University of León, following institutional guidelines in accordance with European legislation (2010/63/EU). Procedures were also approved by the Animal Care and Use Committee of the University of León ULE-008-2019 (25/09/2019). Eighteen lactating sheep (3–4 months in lactation) of between 77–83 kg were used. Animals were previously dewormed and they had ad libitum access to drinking water. Sheep were randomly distributed in three experimental groups. All received a subcutaneous (s.c.) injection of clorsulon at 2 mg/kg (dissolved in DMSO, 80 mg/mL); one group coadministrated with another s.c. injection of ivermectin at 0.2 mg/kg (Ivomec® 1%, Merial, France) and another group with another s.c. injection of abamectin at 0.2 mg/kg (dissolved in DMSO, 8 mg/mL). Blood samples were taken from the jugular vein, while milk samples were obtained after completing milking of the gland before each treatment and at intervals of 1, 2, 4, 6, 8, 10, 12, 24, 30, 48, 72, 96, 120 and 168 h thereafter. Plasma was separated by centrifuging at 1200 g 15 min. Samples were stored at −20°C until analyzed.
(§2) Samples were analyzed by HPLC under conditions which have been previously described ([31]). Briefly, the chromatographic system used included a Waters 2695 separation module and a Waters 2998 UV photodiode array detector. Separation was performed on a reversed-phase column ([…], […], Torrance, CA, United States). The mobile phase consisted of potassium phosphate 0.01 M (pH 7): acetonitrile (75:25). The flow rate was set at 1.20 mL/min, with UV absorbance measured at 225 nm, and the column temperature maintained at 35°C.
(§3) In vitro samples were injected directly into the HPLC system. In vivo samples, milk and plasma, were extracted following a formerly described method ([31]) with minor modifications. For milk and plasma samples, 10 μL of albendazole-2-aminosulfone (6.25 μg/mL) as internal standard and 200 μL of ethyl acetate were added to each 100 μL. Then, the mixture was vortexed horizontally for 1 min and centrifuged at 8000 g for 10 min at 4°C. The resulting supernatant was collected and subjected to evaporation under N2 at 30°C until dryness. To the evaporated samples, 500 μL of hexane and 300 μL of acetonitrile was added, the mixture was again vortexed horizontally for 1 min and centrifuged at 3000 g for 10 min at 4°C. Hexane was removed and the rest was evaporated to dryness under nitrogen stream. After being resuspended in 100 μL of cold methanol, samples were injected into the HPLC system.
(§4) Plasma and milk concentrations for each animal were analyzed using PK solution 2.0 computer program (Summit Research Services, Ashland, OH) to calculated pharmacokinetic parameters as previously described ([27]).

[6] = system: ovine ABCG2; test: in vitro; details: sheep
Protocol: as §5, §6, §7, §8

[7] = Milk pharmacokinetics of clorsulon in lactating Assaf sheep; type: in vivo; details: clorsulon 2 mg/kg s.c., alone or with ivermectin or abamectin 0.2 mg/kg s.c., mean ± SD, n = 6
Protocol: as §1, §2, §3, §4

[8] = set-up: method as in earlier work; details: cattle, s.c. 2 mg/kg clorsulon; cited from earlier work
[9] = system: human ABCG2; set-up: method as in PMID 37078871; details: human ABCG2 transduced cell line; cited from earlier work
[10] = MDCKII oABCG2 cells, ivermectin 10 μM, abamectin […], Ko143 1 μM
[11] = sc, clorsulon 2 mg/kg s.c., alone or with ivermectin or abamectin 0.2 mg/kg s.c., mean ± SD, n = 6

Compound: Abamectin
- Inhibition of clorsulon (10 μM) transport mediated by ovine ABCG2 (in words) [1, 10]: effectively inhibited

Compound: Ivermectin
- Inhibition of clorsulon (10 μM) transport mediated by ovine ABCG2 (in words) [1]: effectively inhibited
- Inhibition potency value [2]: 45.9%

Compound: Nc1cc(C(Cl)=C(Cl)Cl)c(S(N)(=O)=O)cc1S(N)(=O)=O [Clorsulon]
- Papp A→B at 4 h, 10 μM ([3]; n ≥ 3, read-out: AP-BL (Papp A-B)): 22.7 ± 4.6 nm/s
- Papp B→A at 4 h, 10 μM ([3]; n ≥ 3, read-out: BL-AP (Papp B-A)): 24.1 ± 4.6 nm/s
- efflux ratio at 4 h, 10 μM ([3]; read-out: Efflux ratio Papp B-A/Papp A-B): 1.07 ± 0.06
- Transport by ovine ABCG2 (substrate, in words) ([1]; MDCKII oABCG2 cells, clorsulon 10 μM): efficiently transported
- Efflux transport ratio [4]: 2.20 ± 0.13
- AUC(0-inf) [5, 11]: 43.3 ± 6.4 µg·h/mL
- Cmax [5, 11]: 2.13 ± 0.28 µg/mL
- MRT [5, 11]: 25 ± 3.97 h
- Tmax [5, 11]: 6.67 ± 1.93 h
- half-life ([5]; sc, clorsulon 2 mg/kg s.c., alone or with ivermectin or abamectin 0.2 mg/kg s.c., mean ± SD, n = 6, read-out: T1/2 of clorsulon in plasma (converted)): 19 ± 2.38 h
- concentration at 8 h ([5]; subcutaneous, 8 h after clorsulon 2 mg/kg s.c., alone or with ivermectin 0.2 mg/kg s.c.): 1.95 ± 0.24 µg/mL
- Papp A→B at 4 h, 10 μM [6]: 11.3 ± 1.6 nm/s
- Papp B→A at 4 h, 10 μM [6]: 32.3 ± 8.8 nm/s
- efflux ratio at 4 h, 10 μM [6]: 2.92 ± 0.93
- Kp ([7]; female, Assaf, milk/plasma, subcutaneous, sheep, read-out: AUC milk/AUC plasma): 0.49 ± 0.14
- AUC(0-inf) ([7]; female, Assaf, sc, sheep milk): 20.7 ± 4.97 µg·h/mL
- Cmax ([7]; female, Assaf, sc, sheep milk): 0.65 ± 0.29 µg/mL
- MRT ([7]; female, Assaf, sc, sheep milk): 40.8 ± 6.15 h
- Tmax ([7]; female, Assaf, sc, sheep milk): 10 ± 1.26 h
- half-life ([7]; female, Assaf, sc, sheep milk, read-out: T1/2 of clorsulon in milk (converted)): 25.9 ± 3.72 h
- Dose excreted (%) in milk (72 h) ([7]; sheep milk, 72 h): 0.86 ± 0.28%
- Maximum plasma concentration [8]: 2.5 µg/mL
- Time of maximum plasma concentration [8]: 6 h
- Efflux transport ratio [9]: 1.63 ± 0.17

Compound: COc1ccc2c3c([nH]c2c1)[C@H](CC(C)C)N1C(=O)[C@H](CCC(=O)OC(C)(C)C)NC(=O)[C@@H]1C3 [Ko143]
- Inhibition of clorsulon (10 μM) transport mediated by ovine ABCG2 (in words) [1, 10]: complete inhibition
